Results on one compound are retold here after patent US4663326A, “Pyrazolo[4,3-d]pyrimidine-5,7-(4H,6H)dione or -5-thione-7-one analogs” (Warner-Lambert Company, priority 1985, dated 1987).

For the test, the system named is histamine. Briefly: Bronchodilator test (BCA), histamine spasmogen, guinea pigs. Type of test: in vivo, Hartley Guinea Pigs. Further details: key: Active. To be noted: 50 mg/kg. The text has this:
The compounds of this invention may be determined to have antiallergy activity by a standard laboratory means employing the bronchodilator test (BCA) readily accepted as a standard for antiallergy activity, which is described in Siegmund, H. O., et al (J. Pharmacol. and Exptl., 90:254, 1949 and Herxheimer, H., J. Physiol., 117: 252-255, 1952). Thus, antiallergy activity was found for compounds of this invention by this BCA test using Hartley Guinea Pigs by the procedures as described below.
Naive (BCA) pigs are exposed to spasmogen for ten minutes by means of a De Vilbiss number 40 nebulizer positioned at the back of a closed, six unit plexiglas chamger (19×12.5×9"). Air flow is adjusted to give a pressure of 10 lbs/in; six animals per treatment are averaged, and the mean value for compound treated animals is compared to that for animals treated with vehicle. […]
The spasmogen may be acetylcholine chloride (0.3%), histamine (0.1%), methacholine chloride (Mecholyl) (0.1%) or serotonin creatinine sulfate. Each nebulizer dispenses 0.2 cc/minute.

With `Cc1nn(C)c2c(=O)[nH]c(=O)[nH]c12` [Example 1, 1,3-Dimethylpyrazolo[4,3-d]pyrimidine-5,7-(4H, 6H)dione], the “BCA Results, Ratings” value is recorded as “A”.
